# Changes are numbered by the printed parent chain. Read-outs that look alike come from different tables or passages of the source.
# Columns and labels:
# Format in all cases: cell-based
# OR5A2_variant 1 = biological target: T1, OR5A2_variant 1 (Homo sapiens, UniProt Q8NGI9); assay: Luciferase reporter concentration-response analysis on OR5A2_variant 1
# T1 construct: expressed in transfected cells; host or cells: HEK293T-RTP1A1/RTP2
# T1 sequence (Q8NGI9 1-324): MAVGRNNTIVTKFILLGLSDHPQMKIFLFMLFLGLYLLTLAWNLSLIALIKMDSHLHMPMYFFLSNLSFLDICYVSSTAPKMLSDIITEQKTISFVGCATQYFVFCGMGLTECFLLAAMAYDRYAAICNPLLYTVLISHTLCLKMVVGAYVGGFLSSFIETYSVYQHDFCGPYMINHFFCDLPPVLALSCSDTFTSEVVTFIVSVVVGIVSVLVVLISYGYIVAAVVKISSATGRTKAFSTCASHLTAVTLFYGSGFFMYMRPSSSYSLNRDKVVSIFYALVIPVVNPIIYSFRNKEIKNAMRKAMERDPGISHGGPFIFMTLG
# Description: (§1) HEK293T-RTP1A1/RTP2 cells were maintained in minimal essential medium (EMEM, Lonza) containing 10% fetal bovine serum (M10). These cells were generated by transfecting HEK293T with an expression vector containing the sequences of the chaperone proteins RTP1A1 and RTP2 and a resistance gene to puromycin, using Lipofectamine 2000.
# (§2) Odorant molecules were diluted at a concentration of 1 mole/liter (M) into dimethyl sulfoxide (DMSO) to generate stock solutions.
# (§3) For concentration-response analysis, serial dilutions of the tested molecules were prepared from stock solutions in EMEM plated into 96-well plates.
# (§4) For the initial deorphanisation screening and dose-response analysis, a Luciferase-based gene reporter assay (Promega, Leiden, The Nederlands) was used. Briefly, cells were platted on Poly-D-lysine-coated 96-well and transfected with a plasmid containing the CRE-luciferase and a plasmid containing the olfactory receptor. Sixteen hours after transfection, the culture medium was replaced by serum-free EMEM containing the tested compounds at a determined concentration. After four hours of incubation at 37° C. degree, cells were lysed and processed for luminescence measurement. Luminescene emission was recorded. Results were expressed as luciferase activity (Relative […] Unit (RLU)) or as percentage of the response induced by 10 μM of the adenylate cyclase activator Forskolin. An empty plasmid is used as negative control.
# (§5) 35 musk compounds from the four structurally different chemical groups previously described were tested in concentration-response analyses (Table 2). In each experiment, an empty vector was used as negative control (pEFIBRHO). […] Full results including the calculated EC50 are given in Table 2; “non active” represent negative experiments, no activation after testing.
# OR5AN1 = biological target: T2, OR5AN1 (Homo sapiens, UniProt Q8NGI8, E89G); assay: Luciferase reporter concentration-response analysis on OR5AN1; conditions: concentration-response analysis, luciferase reporter, values given as negative (log) numbers, Non Active = no activation after testing; for EC50: read-out: calculated EC50, OR5AN1 (converted)
# T2 construct: expressed in transfected cells; host or cells: HEK293T-RTP1A1/RTP2
# T2 sequence (Q8NGI8 1-311 E89G): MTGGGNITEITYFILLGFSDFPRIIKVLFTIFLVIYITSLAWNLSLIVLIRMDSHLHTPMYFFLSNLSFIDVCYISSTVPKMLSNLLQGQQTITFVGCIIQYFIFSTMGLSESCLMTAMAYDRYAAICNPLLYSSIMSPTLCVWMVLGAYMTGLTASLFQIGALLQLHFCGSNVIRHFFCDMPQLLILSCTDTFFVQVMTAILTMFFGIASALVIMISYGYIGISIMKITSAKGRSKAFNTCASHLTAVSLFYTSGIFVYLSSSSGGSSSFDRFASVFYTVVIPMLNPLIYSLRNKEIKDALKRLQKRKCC
# Description: as §1, with “2000. The recombinant cell population, used in these experiments, was selected by adding 10 μg/ml of puromycin into the culture medium and subsequently subcloned (WO 2014/191047 A1).” for “2000.”
# as §2, §3, §4
# In these analyses we also included ORs previously described as musk-specific receptors OR5AN1 (SEQ ID n° 7) (WO 2015/020158 A1, Shirasu et al. 2014 Neuron 81, 165-78, Sato-Akuhara N et al. 2016 J Neurosci. 36(16), 4482-91) and OR11A1 (SEQ ID n° 8) (WO 2016/201152 A1). […] Therefore, OR5A1 was included in the analyses. 35 musk compounds from the four structurally different chemical groups previously described were tested in concentration-response analyses (Table 2). In each experiment, an empty vector was used as negative control (pEFIBRHO). […] Full results including the calculated EC50 are given in Table 2; “non active” represent negative experiments, no activation after testing. […]
# OR11A1 = biological target: T3, OR11A1 (Homo sapiens, UniProt Q9GZK7); assay: Luciferase reporter concentration-response analysis on OR11A1
# T3 construct: expressed in transfected cells; host or cells: HEK293T-RTP1A1/RTP2
# T3 sequence (Q9GZK7 1-315): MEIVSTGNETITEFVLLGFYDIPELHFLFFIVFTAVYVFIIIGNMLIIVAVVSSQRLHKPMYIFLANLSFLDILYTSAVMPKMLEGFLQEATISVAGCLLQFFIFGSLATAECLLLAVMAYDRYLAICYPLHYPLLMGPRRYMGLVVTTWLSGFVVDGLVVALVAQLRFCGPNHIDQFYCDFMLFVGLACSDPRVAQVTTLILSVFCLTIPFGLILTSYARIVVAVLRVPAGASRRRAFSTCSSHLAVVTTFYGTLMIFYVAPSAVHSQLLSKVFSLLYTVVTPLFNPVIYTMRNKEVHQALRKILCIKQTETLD
# Description: as §1, §2, §3, §4, §5
# These compounds were tested in concentration-response analysis in luciferase assays, as described previously. In each experiment, an empty vector was used as negative control (pEFIBRHO).
# chimeric OR5A2_variant 1 = biological target: T4, chimeric OR5A2_variant 1 (Homo sapiens, UniProt Q8NGI9, F293L/H55R/I289L/M58T); assay: Luciferase reporter concentration-response analysis on chimeric OR5A2_variant 1; conditions: CRE-luciferase; empty vector pEFIBRHO as control
# T4 construct: expressed in transfected cells; host or cells: HEK293T-RTP1A1/RTP2
# T4 sequence (Q8NGI9 with tags, fused parts or gaps H55R/M58T/I289L/F293L): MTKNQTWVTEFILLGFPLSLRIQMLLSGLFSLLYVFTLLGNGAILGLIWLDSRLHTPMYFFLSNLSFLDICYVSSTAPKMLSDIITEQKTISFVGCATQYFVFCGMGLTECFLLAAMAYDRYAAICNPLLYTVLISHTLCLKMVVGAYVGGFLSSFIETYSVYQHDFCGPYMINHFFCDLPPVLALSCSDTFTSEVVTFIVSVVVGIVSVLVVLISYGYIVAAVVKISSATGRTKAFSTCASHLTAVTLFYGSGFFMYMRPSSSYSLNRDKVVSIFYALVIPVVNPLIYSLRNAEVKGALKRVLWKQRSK
# Description: as §1, §2, §3, §4
# (§6) To test if the amino acids substitution could impact the musk sensitivity, and specificity and to validate the Krautwurst's model, luciferase assays were performed as described previously after transfection of the chimeric OR5A2_variant 1. Cells were treated with semi-logarithmic serial dilutions of musk compounds from the four structurally different groups described earlier.
# In each experiment, an empty vector was used as negative control (pEFIBRHO).
# OR2A5 = biological target: T5, OR2A5 (Homo sapiens, UniProt Q96R48, A202S/A255T/I126V); assay: Luciferase reporter concentration-response analysis on OR2A5; conditions: CRE-luciferase
# T5 construct: expressed in transfected cells; host or cells: HEK293T-RTP1A1/RTP2
# T5 sequence (Q96R48 1-311 I126V/A202S/A255T): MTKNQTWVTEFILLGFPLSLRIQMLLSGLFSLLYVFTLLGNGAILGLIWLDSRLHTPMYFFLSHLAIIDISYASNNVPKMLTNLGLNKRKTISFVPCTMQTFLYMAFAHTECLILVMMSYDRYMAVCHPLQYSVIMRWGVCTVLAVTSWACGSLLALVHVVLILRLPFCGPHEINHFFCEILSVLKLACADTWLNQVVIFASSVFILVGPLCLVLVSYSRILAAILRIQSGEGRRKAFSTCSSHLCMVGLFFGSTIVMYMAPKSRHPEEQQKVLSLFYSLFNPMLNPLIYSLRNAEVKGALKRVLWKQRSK
# Description: as §1, with “2000. The recombinant cell population, used in these experiments, was selected by adding 10 μg/ml of puromycin into the culture medium and subsequently subcloned (WO 2014/191047 A1).” for “2000.”
# as §2, §3, §4
# In 1998, Krautwurst and collaborators have provided a model system for the study of ligand specificity and structure-function relationships for olfactory receptors (Krautwurst et al., 1998 Cell 95, 917-26). […] Based on their publication, a chimeric OR5A2_variant 1 olfactory receptor was created containing the TM2-TM7 amino acid sequence of OR5A2_variant 1 flanked by the N-teminal and C-terminal sequence of the olfactory receptor OR2A5 (cf. SEQ ID NO: 12). This chimeric OR5A2_variant 1 receptor shared 86 percent identity with the native OR5A2_variant 1 receptor (FIG. 6A and SEQ ID NO: 10).
# as §6
# OR5A2_variant 2 = biological target: T6, OR5A2_variant 2 (Homo sapiens, UniProt Q8NGI9, P172L); assay: Luciferase reporter concentration-response analysis on haplotype OR5A2_variant 2 (P172L); conditions: CRE-luciferase; empty vector pEFIBRHO as control
# T6 construct: (P172L, OR5A2_variant 2); expressed in transfected cells; host or cells: HEK293T-RTP1A1/RTP2
# T6 sequence (Q8NGI9 1-324 P172L): T1 sequence (Q8NGI9 1-324) with P172L
# Description: as §1, §2, §3, §4
# OR genes are highly variable, with many alleles resulting in differences in smell perception from person to person. These differences can be attributed to genetic variations like, for example, nucleotide polymorphisms. […] Amino acids alignment of the 2 haplotypes are represented in FIG. 4.
# To test if the substitution could impact the musk sensitivity, luciferase assays were performed as described previously after transfection of both OR5A2 variants. Cells were treated with semi-logarithmic serial dilutions of musk compounds from the four structurally different groups described earlier. In each experiment, an empty vector was used as negative control (pEFIBRHO).
# [1] = concentration-response analysis, luciferase reporter, values given as negative (log) numbers, Non Active = no activation after testing, read-out: calculated EC50, OR11A1 (converted)
# [2] = concentration-response analysis, luciferase reporter, values given as negative (log) numbers, read-out: calculated EC50, OR5A2 (converted)
# [3] = concentration-response analysis, luciferase reporter, values given as negative (log) numbers
molecule,measurement,setting,value
CC1C/C=C\CCCCCCCCC(=O)OCC1 (stereo not shown) [nirvanolide],EC50,OR5A2_variant 1,19.5 µM
same,EC50,OR5AN1,417 µM
c1ncc2c(n1)CCCCCCCCCC2 [Musk 77],EC50,OR11A1; [1],9.12 µM
same,EC50,OR5A2_variant 1; [2],5.13 µM
muscone,"calculated EC50, OR5A2",OR5A2_variant 1; [3],−5.25
same,"calculated EC50, OR5AN1",OR5AN1,−5.37
O=C1CCCCCCCCOCCCCCCO1 [Oxalide T],EC50,OR5A2_variant 1; [2],8.32 µM
same,EC50,OR5AN1,32.4 µM
O=C1CCCCCC/C=C\CCCCCCC1 [Globanone (Animusk)],EC50,OR5A2_variant 1; [2],3.98 µM
same,EC50,OR5AN1,2.24 µM
CC(=O)c1cc2c(cc1C)C(C)(C)C(C)C2(C)C (stereo not shown) [Phantolide],EC50,OR11A1; [1],7.59 µM
same,EC50,OR5A2_variant 1; [2],4.57 µM
CC1CC(C)(C)c2ccc(C=O)cc2C1(C)C (stereo not shown) [Fixal],EC50,OR11A1,8.91 µM
same,EC50,OR5A2_variant 1,10.2 µM
CC1COCc2cc3c(cc21)C(C)(C)C(C)C3(C)C (stereo not shown) [Galaxolide ®],EC50,OR5A2_variant 1; [2],1.05 µM
C=C(C)C1CCC(C)=C1CC(C)(C)COC(=O)CC (stereo not shown) [cyclopentenyl propionate musk],EC50,OR5A2_variant 1,28.2 µM
"Cc1c([N+](=O)[O-])cc2c(c1[N+](=O)[O-])C(C)(C)CC2(C)C [Moskene, 1,1,3,3,5-pentamethyl-4,6-dinitro-2H-indene]",EC50,OR5A2_variant 1; [2],1.86 µM
O=C1CCCCCCCCCCCCCCO1 [Thibetolide = Exaltolide],EC50,OR5A2_variant 1; [2],43.7 µM
same,EC50,OR5AN1,87.1 µM
CC1CC(C)(C)C2=C(CC3(C)OC3C2)C1(C)C (stereo not shown) [malaxone],EC50,OR5A2_variant 1,29.5 µM
same,EC50,OR5AN1,309 µM
Helvetolide,"calculated EC50, OR5A2",OR5A2_variant 1; [3],−3.86
CC(=O)c1cc(C(C)(C)C)cc2c1CCC2(C)C [crysolide],EC50,OR5A2_variant 1; [2],22.4 µM
same,EC50,OR5AN1,120 µM
CC(=O)c1cc2c(cc1C)C(C)(C)C(C)C2C(C)C (stereo not shown) [traseolide],EC50,OR11A1; [1],7.08 µM
same,EC50,OR5A2_variant 1; [2],1.95 µM
CC(=O)c1cc2c(cc1C)C(C)(C)C(C)CC2(C)C (stereo not shown) [Tonalide ®],EC50,OR11A1; [1],18.2 µM
same,EC50,OR5A2_variant 1; [2],0.759 µM
Cyclopenta- decanone,"calculated EC50, OR5AN1",OR5AN1,−4.95
"COc1c(C(C)(C)C)cc([N+](=O)[O-])c(C)c1[N+](=O)[O-] [Musk Ambrette, 2,6-dinitro-3-methoxy-4-tert-butyltoluene]",EC50,OR5A2_variant 1; [2],8.71 µM
same,EC50,OR5AN1,692 µM
C/C(=C\C(C)C)C(C)OC(C)(C)COC(=O)C1CC1 (stereo not shown) [Sylkolide],EC50,OR5A2_variant 1,17.8 µM
O=C1CCCCCCCCC/C=C/CCCO1 [Habanolide],EC50,OR5A2_variant 1,16.2 µM
same,EC50,OR5AN1,66.1 µM
Isoambrettolide,"calculated EC50, OR5A2",OR5A2_variant 1; [3],−4.72
CC1COCc2cc3c(cc21)C(C)(C)C(C)C3(C)C (stereo not shown) [Galaxolide®],"activation of chimeric OR5A2_variant 1, concentration-response",chimeric OR5A2_variant 1,shows dose response curves
same,"activation of OR2A5, concentration-response",OR2A5,but not the OR2A5
same,"activation of OR5A2_variant 2 (P172L), concentration-response",OR5A2_variant 2,not activated
same,"activation of OR5A2 (OR5A2_variant 1), concentration-response","OR5A2_variant 1; CRE-luciferase, semi-logarithmic serial dilutions, empty vector pEFIBRHO as control",shows dose response curves
ω-6-Hexadecen- lactone,"calculated EC50, OR5A2",OR5A2_variant 1; [3],−5.17
same,"calculated EC50, OR5AN1",OR5AN1,−4.68
O=C1CCCCCCCCCCC(=O)OCCO1 [Musk MC4],EC50,OR5A2_variant 1; [2],38 µM
same,EC50,OR5AN1,75.9 µM

# From patent US12461089B2, “Olfactory receptor involved in the perception of musk fragrance and the use thereof” (ChemoSensoryX Biosciences SA, priority 2017, dated 2025)
